Values joined by “and” are separate entries in the source; they are usually repeats but may differ in a detail not shown here. Equal values may be shown once.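 Cells were grown in 96-well plates and exposed to each compound for 48 hours at five concentrations; endpoints were interpolated linearly between bracketing concentrations, or set to the highest concentration if not reached. GI50 is the concentration that inhibits growth by half. Definition used: TGI = concentration required for complete inhibition of growth.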

Assay in all cases: NCI tumour cell line growth inhibition, 48 h
Experiment [1] deals with NCI-H23 lung.
The test system of experiment [2] is SF-295 CNS.
Experiment [3] concerns CAKI-1 renal.
The test system of experiment [4] is NCI-H460 lung.
Experiment [5] concerns A498 renal.
Experiment [6] relates to SR leukemia.
The test system of experiment [7] is RXF 393 renal.
The subject of experiment [8] is HT29 colon.
The test system of experiment [9] is M14 melanoma.
The test system of experiment [10] is CCRF-CEM leukemia.
For experiment [11], the system named is DU-145 prostate.
For experiment [12], the system named is NCI/ADR-RES ovarian.
In experiment [13] the test system is HOP-62 NSCLC.
Experiment [14] concerns COLO 205 colon.

On to `C=CCN1C(=O)/C(=C/c2ccc(OC)cc2)N=C1SC1OC(COC(C)=O)C(OC(C)=O)C(OC(C)=O)C1OC(C)=O` (stereo unspecified), for which the TGI in experiment [1] was over 100 µM; in [2], 48.8 µM and > 100 µM; in experiment [3], 33 µM and > 100 µM; in experiment [4] it was over 100 µM; in experiment [5], > 100 µM and 86.2 µM; in [6], over 100 µM. Besides, the TGI was 46.5 µM and 89.5 µM in experiment [7]; 22.4 µM in [8]; over 100 µM in [9]; over 100 µM in [10]; 39.2 µM and > 100 µM in experiment [11]; over 100 µM in experiment [12]. For the same molecule, the TGI in [13] is 40 µM and > 100 µM; in experiment [14], over 100 µM. The GI50 was 21 µM and 70.3 µM in [2]; 16 µM and > 100 µM in experiment [3]; 24.7 µM and 99.9 µM in experiment [4]; 21.7 µM in experiment [10]; 17.5 µM and 90 µM in [13].

On to `O=C(/C=C/c1ccc(O)cc1)c1cc(-c2cc(CCC(=O)c3ccc(O)cc3O)ccc2O)c(O)cc1O`, for which the TGI is over 50 µM in [1]; over 50 µM in experiment [2]; over 50 µM in experiment [3]; over 50 µM in experiment [4]; over 50 µM in experiment [5]; 29.5 µM in [6]. Also, the TGI in experiment [7] was over 50 µM; in experiment [8], 35.8 µM; in experiment [9], over 50 µM; in experiment [10] it was 43.6 µM; in experiment [11], over 50 µM; in [12], over 50 µM. Further, the TGI was over 50 µM in experiment [13] and 22.6 µM in experiment [14].

As to `N#CCN1CCN(CC#N)CCN(CC#N)CCN(CC#N)CC1`, the TGI in experiment [1], in [2], in experiment [3], in experiment [4], in experiment [5] and in experiment [6] was over 100 µM each time. Besides, the TGI in experiment [7], in experiment [8], in experiment [9], in [10], in [11] and in [12] was over 100 µM each time. The TGI in experiment [13] and in experiment [14] was over 100 µM each time.

`C=C1C(=O)OC2/C=C(\C)CC/C=C(\C)CC(OC(=O)/C(=C/CO)CO)[C@@H]12` (stereo partly specified): the TGI in experiment [1] is 29.4 µM; in experiment [2], over 100 µM; in experiment [3], 14.1 µM; in [4], 48.8 µM; in experiment [5], 34.6 µM; in [6] it was over 23.8 µM. Also, the TGI came to 21.3 µM in experiment [7]; 20.6 µM in [8]; 11.4 µM in [9]; 6.75 µM in [10]; 42.3 µM in experiment [11]; 59.6 µM in [12]. Moreover, the TGI in [14] is 5.4 µM.

On to `O=C(/N=C1/OC(CN2CCOCC2)CN1C(=O)Nc1ccccc1)Nc1ccccc1` (stereo unspecified), for which the TGI in [1], in experiment [2], in experiment [3], in experiment [4], in [5] and in experiment [6] was over 100 µM each time. The TGI in experiment [7], in experiment [8], in experiment [9], in experiment [10], in experiment [11] and in experiment [12] was over 100 µM throughout. For the same molecule, the TGI in experiment [13] and in experiment [14] was over 100 µM each time.

For the molecule `O=C1Nc2ccccc2/C1=N/N1C(=O)/C(=C/c2ccccc2S)N=C1c1ccccc1`, the TGI in experiment [1], in experiment [2], in experiment [3], in experiment [4], in experiment [5] and in [6] was over 100 µM each time. Also, the TGI in experiment [7], in experiment [8], in experiment [9], in experiment [10], in [11] and in experiment [12] was over 100 µM each time. The TGI in experiment [13] and in [14] was over 100 µM in each case.

In the case of `CNc1cccc2c1C(C)C[C@]1(C)C(=O)Nc3ccccc3[C@H]21` (stereo partly specified), the TGI in [1] was over 100 µM; in experiment [2] it was 34.2 µM; in experiment [3], 63.7 µM; in experiment [4], 41.1 µM; in experiment [5] it was 43.6 µM; in [6], 43.3 µM. For the same molecule, the TGI in [7] is 50 µM; in [8] it was 81.6 µM; in experiment [9] it was 41.5 µM; in [10], over 100 µM; in experiment [11], over 100 µM; in experiment [12] it was 45.4 µM. Further, the TGI in [13] was 36.4 µM; in experiment [14] it was over 100 µM.

With `Cn1c(-c2cccs2)cc(-c2ccsc2)c1-c1cccs1`, the TGI in experiment [1], in experiment [2], in [3], in experiment [4], in [5] and in experiment [6] was over 100 µM each time. In addition, the TGI in experiment [7], in experiment [8], in [9], in experiment [10], in experiment [11] and in [12] was over 100 µM throughout. Further, the TGI in experiment [13] was over 100 µM; in experiment [14] it was 46.5 µM.

On to `O=C1O/C(=C(/Cl)c2c3ccccc3cc3ccccc23)c2ccccc21`, for which the TGI in [1] was 79.9 µM; in experiment [2] it was over 100 µM; in [3], over 100 µM; in experiment [4], over 100 µM; in experiment [5], 80.2 µM; in [6], 35.6 µM. In addition, the TGI was 96.4 µM in [7]; 43.1 µM in [8]; 53.8 µM in [9]; 59.1 µM in [10]; over 100 µM in [11]; over 100 µM in experiment [12]. Also, the results for the TGI in experiment [13] and in experiment [14] were 57.8 µM and 49.2 µM, respectively.

Take `Cc1c(-c2ccccc2)c(C#N)c2nnn(C)c(=O)n12`: the TGI in experiment [1], in experiment [2], in experiment [3], in [4], in [5] and in experiment [6] was over 100 µM throughout. The TGI in experiment [7], in [8], in experiment [9], in [10], in experiment [11] and in experiment [12] was over 100 µM each time. For the same molecule, the TGI in experiment [13] and in experiment [14] was over 100 µM in each case.

Regarding `N/N=C(/CC(O)(C(F)(F)F)C(F)(F)F)c1ccccc1`, the TGI in [1], in experiment [2], in [3], in experiment [4], in experiment [5] and in [6] was over 10 µM each time. For the same molecule, the TGI in experiment [7], in [8], in [9], in experiment [10], in experiment [11] and in [12] was over 10 µM throughout. Moreover, the TGI in experiment [13] and in [14] was over 10 µM throughout.

Turning to `COCCNC1CCC(=O)c2[nH]c3ccccc3c21` (stereo unspecified), the TGI in experiment [1], in experiment [2], in experiment [3], in [4], in experiment [5] and in experiment [6] was over 100 µM throughout. For the same molecule, the TGI in experiment [7], in experiment [8], in experiment [9], in experiment [10], in experiment [11] and in experiment [12] was over 100 µM in each case. Besides, the TGI in experiment [13] and in experiment [14] was over 100 µM throughout.

For the molecule `CC(CC(C)[C@H]1CCC2[C@H]3C(CC(=O)[C@@]21C)[C@@]1(C)CCC(O)C[C@H]1C[C@@H]3O)C(=O)O` (stereo partly specified), the TGI in [1], in experiment [3], in experiment [4], in [5], in experiment [6] and in experiment [7] was over 100 µM throughout. The TGI in experiment [8], in experiment [9], in [10], in experiment [11], in experiment [12] and in [13] was over 100 µM throughout. Also, the TGI in experiment [14] was over 100 µM.

`Cc1ccc(S(=O)(=O)OI(O)CC(F)(F)F)cc1`: the TGI in experiment [1], in [2], in experiment [3], in experiment [4], in experiment [5] and in experiment [6] was over 100 µM each time. In addition, the TGI in experiment [7], in experiment [8], in experiment [9], in experiment [10], in experiment [11] and in experiment [12] was over 100 µM in each case. Besides, the TGI in [13] and in [14] was over 100 µM throughout.

Turning to `CC1=NN(C(=O)CC(=O)Nc2ccc(Cl)cc2)C(=O)C1N=Nc1ccc(S(=O)(=O)c2ccc(N=NC3C(=O)N(C(=O)CC(=O)Nc4ccc(Cl)cc4)N=C3C)cc2)cc1` (stereo unspecified), the TGI in [1], in [2], in [3], in [4], in experiment [5] and in [6] was over 100 µM each time. Moreover, the TGI in experiment [7], in experiment [8], in experiment [9], in [10], in [11] and in experiment [12] was over 100 µM each time. For the same molecule, the TGI in experiment [13] and in [14] was over 100 µM throughout.

For the molecule `CC(C)N(C(=O)C12C3(C(=O)C(C)(C)C)C4C5(C#N)C3C1(C(=O)C(C)(C)C)C5C42C(=O)C(C)(C)C)C(C)C` (stereo unspecified), the TGI in experiment [1], in experiment [2], in experiment [3], in [4], in experiment [5] and in experiment [6] was over 100 µM each time. Besides, the TGI in [7], in experiment [8], in [9], in experiment [10], in experiment [11] and in experiment [12] was over 100 µM each time. In addition, the TGI in experiment [13] and in experiment [14] was over 100 µM throughout.

For the molecule `COC(=O)/C=C1/OC(c2ccc(C)cc2C)=CC1=O`, the TGI is 61 µM in experiment [1]; 34.5 µM in experiment [3]; 36.5 µM in experiment [4]; 42.3 µM in experiment [5]; over 100 µM in experiment [6]; 24.9 µM in [7]. The TGI in experiment [8] is 18.8 µM; in experiment [9], 31.1 µM; in [10], over 100 µM; in experiment [11] it was 30 µM; in [12], 42.3 µM; in experiment [13] it was 61.2 µM. In experiment [14], this molecule returned a TGI of 30.2 µM.

Turning to `CC(C(=O)O)C1Nc2ccccc2NC1=O` (stereo unspecified), the TGI in experiment [1], in experiment [2], in experiment [3], in experiment [4], in experiment [5] and in [6] was over 100 µM each time. The TGI in experiment [7], in [8], in experiment [9], in experiment [10], in experiment [11] and in experiment [12] was over 100 µM in each case. The molecule further returned a TGI in experiment [14] of over 100 µM.

With `CNC(=O)OCc1nc(N=[N+]=[N-])n(C)c1COC(=O)NC`, the TGI in [1] was over 100 µM; in experiment [2] it was over 100 µM; in experiment [3] it was 61 µM; in experiment [4] it was over 100 µM; in experiment [5], over 100 µM; in [6], 86 µM. In addition, the TGI in [7] was 54.5 µM; in experiment [8], over 100 µM; in [10] it was over 100 µM; in experiment [11] it was over 100 µM; in experiment [12] it was over 100 µM; in experiment [13] it was over 100 µM. In addition, the TGI in experiment [14] is over 100 µM.
